According to patent US4965261A, “Substituted benzoxazinorifamycin derivative and antibacterial agent containing the same” (Kanegafuchi Kagaku Kogyo Kabushiki Kaisha, priority 1988, dated 1990):
≈ marks a conversion by molar mass, not a printed value.

Experiments:
[1] = test system: Mycobacterium tuberculosis H37 Rv; test: Therapeutic effect on mice experimentally infected with tuberculosis (FIG. 1, groups of 20 mice); settings: oral, 200 μg/mouse, once a day, six days a week
From the text: In FIG. 1, the point, a, means the time that mice were infected, and the point, b, means the time that the treatment started.

[2] = test system: Mycobacterium tuberculosis H37 Rv; test: Repeated treatment test of mice infected with tuberculosis, survival on fortieth day (groups of 10 mice); settings: oral, 200 μg/mouse
[3] = test system: Escherichia coli IFO 12734; test: Antibacterial activity, standard method of Japan Society of Chemotherapy (Table 2); type: cell-based; settings: IFO12734, read-out: Minimal inhibitory concentration
From the text: (§1) Derivative No. in Table 2 corresponds to derivative No. in Table 1.

[4] = test system: Bacillus subtilis IFO 3134; test: as above; type: cell-based; settings: IFO3134, read-out: Minimal inhibitory concentration
From the text: as §1

[5] = test system: Mycobacterium smegmatis ATCC 607; test: as above; type: cell-based; settings: Mycolicibacterium smegmatis, ATCC607, read-out: Minimal inhibitory concentration
From the text: as §1

[6] = test system: Staphylococcus aureus IFO 12732; test: as above; type: cell-based; settings: IFO12732, read-out: Minimal inhibitory concentration
From the text: as §1

[7] = test system: Klebsiella pneumoniae IFO 3512; test: as above; type: cell-based; settings: IFO3512, read-out: Minimal inhibitory concentration
From the text: as §1

[8] = test system: Micrococcus luteus IFO 12708; test: as above; type: cell-based; settings: IFO12708, read-out: Minimal inhibitory concentration
From the text: as §1

[9] = test system: Mycobacterium tuberculosis H37 Rv; test: Antibacterial activity against a tubercle bacillus, two-fold dilution in Kirchner liquid medium; settings: Table 3; Kirchner medium with 10% bovine serum, 37° C., 4 weeks
[10] = Plasma concentration after oral administration to mice, bioassay with Micrococcus luteus IFO 12708; type: in vivo, ddY male mice; settings: mouse, 20 mg/kg
Method: The derivatives No. 4 and No. 11 shown in Table 1 were orally administered to ddY male mice (7 weeks), respectively, in a dose of 20 mg/kg. The concentration of the test compound in the plasma was measured by a bioassay method employing Micrococcus luteus IFO 12708 as an assay bacterium according to a usual manner. The results are as follows: As for the derivative No. 4, the concentrations in the plasma after 1 hour, 3 hours, 5 hours and 8 hours from the administration were 17.0 μg/ml, 13.3 μg/ml, 14.5 μg/ml, 4.2 μg/ml, respectively. As for the derivative No. 11, the concentrations in the plasma after 1 hour, 3 hours, 5 hours and 8 hours from the administration were 17.3 μg/ml, 16.2 μg/ml, 13.8 μg/ml and 10.1 μg/ml, respectively.

Row | Compound | therapeutic effect as compared with rifampicin [1] | Survival rate [2] [%] | dead mice [2] | MIC [3] [µg/mL] | MIC [4] [µg/mL] | MIC [5] [µg/mL] | MIC [6] [µg/mL] | MIC [7] [µg/mL] | MIC [8] [µg/mL] | Minimal inhibitory concentration [9] [µg/mL] | concentration at 1 h ([10]; 1 hour) [ng/mL] | concentration at 3 h ([10]; 3 hours) [ng/mL] | concentration at 5 h ([10]; 5 hours) [ng/mL] | concentration at 8 h ([10]; 8 hours) [ng/mL] | therapeutic effect as compared with rifampicin and derivative A [1]
1 | COC1C=COC2(C)Oc3c(C)c(O)c4c(=O)c(c5oc6cc(N7CCCCC7)ccc6nc-5c4c3C2=O)NC(=O)C(C)=CC=CC(C)C(O)C(C)C(O)C(C)C(OC(C)=O)C1C (centres unmarked) [Derivative B] | inferior to rifampicin |  |  |  |  |  |  |  |  |  |  |  |  |  | 
2 | CCc1c(N2CCCC2)ccc2nc3c4c5c6c(C)c(O)c4c(=O)c(c-3oc12)NC(=O)C(C)=CC=CC(C)C(O)C(C)C(O)C(C)C(OC(C)=O)C(C)C(OC)C=COC(C)(O6)C5=O (centres unmarked) [Derivative C] | inferior to rifampicin |  |  |  |  |  |  |  |  |  |  |  |  |  | 
3 | CCOc1c(N2CCCC2)ccc2nc3c4c5c6c(C)c(O)c4c(=O)c(c-3oc12)NC(=O)C(C)=CC=CC(C)C(O)C(C)C(O)C(C)C(OC(C)=O)C(C)C(OC)C=COC(C)(O6)C5=O (centres unmarked) [Derivative No. 4] |  | 100 | there was not observed any dead mouse | > 10 | 0.04 (≈ 0.0445 µM) | 0.63 (≈ 0.702 µM) | ≤ 0.02 | > 10 | 0.04 (≈ 0.0445 µM) | 0.017 (≈ 0.0189 µM) | 17000 | 13300 | 14500 | 4200 | 
4 | CCOc1c(N2CCN(CC(C)C)CC2)ccc2nc3c4c5c6c(C)c(O)c4c(=O)c(c-3oc12)NC(=O)C(C)=CC=CC(C)C(O)C(C)C(O)C(C)C(OC(C)=O)C(C)C(OC)C=COC(C)(O6)C5=O (centres unmarked) [Derivative No. 8] |  |  |  | > 10 | ≤ 0.02 | 0.63 (≈ 0.65 µM) | ≤ 0.02 | > 10 | ≤ 0.02 | 0.07 (≈ 0.0722 µM) |  |  |  |  | excellent therapeutic effect as compared with rifampicin
